Laboratory results published in paper PMC5689723, “Targeting aggressive prostate cancer-associated CD44v6 using phage display selected peptides” (Oncotarget, 2017).
Read-outs that look alike come from different tables or passages of the source. Ends that are not written are not given here. Peptide text beside a SMILES is read from it. * marks the point of attachment. Biotin = O=C1N[C@H]2[C@H](CS[C@H]2CCCCC(=O)*)N1

Tests used:
PC3M cells = assay: MTT assay, PC3M cells; format: cell-based; conditions: Homo sapiens, PC-3M, 48 h, 5000 cells per well, triplicate, 562 nm, P< 0.05 vs v6A3, read-out: DOX IC50 of PC3M
Description: To determine the dose response of drug-resistant PC3M1G4 cell lines, PC3M and v6A3 cells were seeded in triplicate in 96-well plates at 5000 cells per well and incubated for 24 h. A range of concentrations (1000, 100, 10, 1, 0.1, 0.01, 0.001, 0.0001 nM) of DOX in fresh medium were added to the cells. Control cells were treated with appropriate volumes of fresh medium. After 48 h, 20 μl of MTT (3-(4,5-dimethylthiazol-2-yl)-2,5-diphenyltetrazolium bromide) (5 mg/ ml) (Sigma-Aldrich, St. Louis, MO) was added to each well, followed by incubation at 37°C in 5% CO2 for 4 h. Subsequently, 100 μl of DMSO (Sigma-Aldrich, St. Louis, MO) was added and the plate was shaken for 20 min at RT to dissolve the formazan crystals. The optical density (absorbance units) was read at a wavelength of 562 nm on a μQuant Universal Microplate Spectrophotometer (Bio-Tek Instruments, Winooski, VT). The growth inhibition curve was generated using GraphPad Prism 6.0 software (GraphPad Software Inc., San Diego, CA). Absolute IC50 values were calculated using the log inhibitor vs. response curves for nonlinear regression.

SORE6-GFP^- cells = system: SORE6-GFP^- cells; design: method as in PMID 22439924; conditions: treatment with doxorubicin; proportion of SORE6-GFP^+ cells increased dramatically; ref [41]; cited from earlier work
recombinant CD44v6-Fc = molecular target: T1, recombinant CD44v6-Fc (Homo sapiens, UniProt P16070, DEL223-384/DEL429-575); assay: Peptide-Protein ELISA, recombinant CD44v6-Fc; format: binding; conditions: 2 h at RT, 490 nm; for Kd: biotinylated peptide, CD44v6-Fc coated at 1 μg/ml, pH 9.6, 0.5% BSA in PBST, HRP-streptavidin, nonlinear regression, GraphPad Prism 6.0; for binding to recombinant CD44v6-Fc (in words): biotinylated synthetic peptides, various concentrations, Figure 2C, 2D
T1 construct: the ECD of CD44 and CD44v6 protein were expressed as Fc-tagged proteins; made in house; host or cells: CHO-K1 cells, purified by protein A chromatography
Description: Figure 2 Characterization of peptide binding to recombinant CD44v6 (A) Schematic of recombinant CD44v6-Fc and CD44-Fc expression construct. The number of constant exons (1-5 and 15-17) are marked. (B) SDS-PAGE analysis and immunoblotting of purified CD44v6-Fc and CD44-Fc (M, BioRad precision plus all blue prestained protein standard; lane 1, CD44v6-Fc; lane 2, CD44-Fc). For SDS-PAGE analysis, the purified proteins were detected by coomassie blue staining. For immunoblotting, the mouse anti-human Fc Ab or mouse anti-human v6 region specific mAb VFF18 was used as the primary Ab and HRP conjugated goat anti-mouse Ab was used as the secondary Ab. (C) ELISA analysis of the dose dependent recombinant CD44v6-Fc binding ability of four biotinylated peptides. […] The maximal ELISA absorbance value of PFT binding to CD44v6-Fc was used to normalize the binding signal of individual peptides. The specific binding curve was generated using GraphPad Prism 6.0 software and absolute Kd values were calculated using nonlinear regression. (D) The specificity of PFT binding to recombinant CD44v6-Fc. Different concentrations of PFT and its two scrambled peptide versions were incubated with immobilized CD44v6-Fc or CD44-Fc, respectively for ELISA analyses. The maximal ELISA absorbance value of PFT binding to CD44v6-Fc was used to normalize the binding signal of individual peptides. The specific binding curve was generated using GraphPad Prism 6.0 software.
An ELISA was performed to analyze the binding of synthesized biotinylated peptides to recombinant CD44-Fc or CD44v6-Fc. Briefly, 100 μl of recombinant protein at 1 μg/ml in 0.05 M carbonate/bicarbonate coating buffer (pH 9.6) was added to each well of a 96-well microtiter plate and coated for 24 h at 4°C. The plates were blocked with 1% BSA in PBST buffer (0.05% Tween 20 in PBS) and then incubated with 100 μl of peptides or antibodies at various concentrations in 0.5% BSA in PBST for 2 h at RT. After washing extensively for five times with PBST buffer, the plates were incubated with 100 μl of HRP-conjugated streptavidin (1:2000 diluted with 0.5% BSA in PBST buffer) for 1 h at RT. After washing five times with PBST buffer, the Sigma fast O-phenylenediamine dihydrochloride tablets (Sigma-Aldrich, St. Louis, MO) were used as substrates and the absorbance was measured at 490 nm using an endpoint assay on a μQuant Universal Microplate Spectrophotometer (Bio-Tek Instruments, Winooski, VT).
For binding analysis, the ECD of CD44 and CD44v6 protein were expressed as Fc-tagged proteins (Figure 2A). Exon numbering was performed according to the study of Screaton et al. The ECD of CD44 was engineered as an N-terminal constant sequence (exons 1–5) followed by a nonvariable stretch at the C-terminus (exons 15–17) (Figure 2A). […]

[1] = system: v6 region peptide (KEQWFGNRWHEGYR) of CD44v6; assay: Peptide-Peptide ELISA, v6 region peptide; format: binding, human; conditions: biotinylated peptides 10 μM, v6 and control peptides 2 μM on streptavidin plate; 25 mM Tris pH 7.2, 150 mM NaCl, 0.1% BSA, 0.05% Tween-20; 2 h at RT; 490 nm; Figure 1D
Met signaling = conditions: v6 peptide derivative; ref [36]; cited from earlier work
CD44v6 = assay: Immunohistofluorescence, human PCa tissue microarrays; conditions: T3N2M1 (grade III) TMA sample; 50 μM peptide; Figure 10C
VFF18 = conditions: amino acids 19-29 of the v6 domain; ref [55]; cited from earlier work
Description: Affinity selection of phage displaying peptides typically involves passing the phage library over desired target molecules, such as protein biomarkers of cancer. In this study, we aimed to obtain peptides specific to the v6 region of human CD44v6, a putative aggressive cancer and/or CSC biomarker. However, the v6 region contains only 45 amino acids while the CD44v6-ECD consists of 290 amino acids. […] VFF18 is a murine mAb gene ...

[2] = molecular target: CD44v6-Fc ECD (exons 1-5, v6 exon 10, exons 15-17) (Homo sapiens), P16070; assay: ELISA; conditions: N-terminal biotin on peptide, Fc fusion of CD44v6
Sequence of CD44v6-Fc ECD (exons 1-5, v6 exon 10, exons 15-17) (Homo sapiens), P16070 (P16070 whole entry, looked up, change not shown, the tested form may be a part): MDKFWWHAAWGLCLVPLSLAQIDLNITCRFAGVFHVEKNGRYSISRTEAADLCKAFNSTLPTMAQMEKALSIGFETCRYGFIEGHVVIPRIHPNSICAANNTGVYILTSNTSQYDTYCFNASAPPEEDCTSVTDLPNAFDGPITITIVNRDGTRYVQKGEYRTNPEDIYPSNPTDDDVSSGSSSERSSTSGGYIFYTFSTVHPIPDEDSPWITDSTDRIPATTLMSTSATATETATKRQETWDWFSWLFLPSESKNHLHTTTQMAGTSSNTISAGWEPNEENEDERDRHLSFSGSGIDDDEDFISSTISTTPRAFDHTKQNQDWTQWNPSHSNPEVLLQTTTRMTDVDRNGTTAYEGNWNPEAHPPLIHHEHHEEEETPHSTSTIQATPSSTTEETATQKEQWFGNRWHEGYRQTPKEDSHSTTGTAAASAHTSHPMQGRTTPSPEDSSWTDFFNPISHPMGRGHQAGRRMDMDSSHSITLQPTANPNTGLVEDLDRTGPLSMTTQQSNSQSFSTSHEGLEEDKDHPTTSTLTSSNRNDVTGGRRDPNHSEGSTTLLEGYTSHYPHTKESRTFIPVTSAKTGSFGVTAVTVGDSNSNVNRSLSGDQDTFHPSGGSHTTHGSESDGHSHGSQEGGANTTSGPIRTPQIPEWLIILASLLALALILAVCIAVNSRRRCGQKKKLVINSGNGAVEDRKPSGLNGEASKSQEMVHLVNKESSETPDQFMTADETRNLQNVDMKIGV

T1 sequence (P16070 with tags, fused parts or gaps isoform P16070-7 DEL223-384/DEL429-575 limits assumed): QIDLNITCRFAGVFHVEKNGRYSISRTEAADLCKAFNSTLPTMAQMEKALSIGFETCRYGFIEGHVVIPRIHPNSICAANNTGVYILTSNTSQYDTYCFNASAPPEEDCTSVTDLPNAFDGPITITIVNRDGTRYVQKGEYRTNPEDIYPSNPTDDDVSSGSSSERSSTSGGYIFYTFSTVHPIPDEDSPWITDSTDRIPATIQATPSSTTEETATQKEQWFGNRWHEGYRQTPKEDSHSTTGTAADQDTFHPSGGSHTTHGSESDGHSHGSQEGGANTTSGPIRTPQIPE

For `COc1cccc2c1C(=O)c1c(O)c3c(c(O)c1C2=O)C[C@@](O)(C(=O)CO)C[C@@H]3O[C@H]1C[C@H](N)[C@H](O)[C@H](C)O1` [DOX, doxorubicin], the IC50 (PC3M cells) is listed as 51.6 nM and the “cell death among SORE6-GFP^- cells on DOX treatment (in words)” value (SORE6-GFP^- cells) is listed as “extensive cell death was observed among SORE6-GFP^- cells”.

`CC(C)[C@H](NC(=O)[C@H](Cc1ccccc1)NC(=O)[C@@H]1CCCN1C(=O)[C@@H](NC(=O)[C@H](CO)NC(=O)[C@@H](NC(=O)[C@@H](NC(=O)[C@H](Cc1ccccc1)NC(=O)[C@@H]1CCCN1C(=O)CNC(=O)[C@H](CO)NC(=O)CNC(=O)CCCC[C@@H]1SC[C@@H]2NC(=O)N[C@@H]21)[C@@H](C)O)C(C)C)C(C)C)C(=O)N[C@@H](Cc1c[nH]c2ccccc12)C(=O)N[C@@H](CC(N)=O)C(=O)N[C@@H](Cc1ccccc1)C(=O)N[C@H](C(=O)N[C@@H](C)C(=O)N[C@@H](CC(=O)O)C(=O)O)[C@@H](C)O` [PFT] (Biotin-GSGPFTVSVPFVWNFTAD-OH) gave a Kd (recombinant CD44v6-Fc; read-out: apparent affinity (equilibrium dissociation constant, Kd) to recombinant CD44v6) of 743 ± 153 nM.

Molecule `CC(C)[C@H](NC(=O)[C@H](CO)NC(=O)[C@H](CO)NC(=O)[C@@H](NC(=O)[C@H](CCCNC(=N)N)NC(=O)[C@@H]1CCCN1C(=O)CNC(=O)[C@H](C)NC(=O)[C@H](Cc1c[nH]c2ccccc12)NC(=O)CNC(=O)[C@H](CO)NC(=O)CNC(=O)CCCC[C@@H]1SC[C@@H]2NC(=O)N[C@@H]21)C(C)C)C(=O)N[C@@H](Cc1ccc(O)cc1)C(=O)N[C@@H](Cc1ccc(O)cc1)C(=O)N[C@@H](C)C(=O)NCC(=O)N[C@@H](C)C(=O)N[C@@H](CCCNC(=N)N)C(=O)O` [WAG] (Biotin-GSGWAGPRVSSVYYAGAR-OH) has a Kd (recombinant CD44v6-Fc; read-out: apparent affinity (Kd) to recombinant CD44v6) of 8670 ± 1850 nM.

In the case of Biotin-GSG-SAYDRPL (Biotin-GSGSAYDRPL), the “binding of synthetic peptides to v6 region peptide compared to control peptide (in words)” value [1] is reported as “increased binding to v6 region peptide compared to control peptide”.

With Biotin-GSG-WSNKGYD the “binding of synthetic peptides to v6 region peptide compared to control peptide (in words)” value [1] was “increased binding to v6 region peptide compared to control peptide”.

In the case of KEQWFGNRWHEGYR [selection target], the “inhibition of Met signaling (in words)” value (Met signaling) is listed as “inhibited Met signaling”.

With VSVWFVTANFPPFTD [scr2] the “binding to recombinant CD44v6-Fc (in words)” value (recombinant CD44v6-Fc) was “negligible binding to CD44v6-Fc”.

In the case of VTPVFSFATPNFVDW [scr1], the “binding to recombinant CD44v6-Fc (in words)” value (recombinant CD44v6-Fc) is reported as “negligible binding to CD44v6-Fc” and the “staining of PCa tissue by scrambled peptide (in words)” value (CD44v6) is reported as “no staining”.

For “WFGNRWHEGYR [peptide corresponding to amino acids 19-29 of the v6 domain]”, the “epitope for VFF18 binding (in words)” value (VFF18) is given as “minimum sequence required for high-affinity binding of VFF18”.

With Biotin-GSGWAGPRVSSVYYAGAR [WAG] the Kd [2] was 8670 nM.

For Biotin-GSGPFTVSVPFVWNFTAD [PFT], the Kd [2] was 743 nM.
